Experimental data as given in the NIST ThermoML archive (doi:10.1021/je900672g).
± gives the expanded uncertainty stated by the source.

Test: isobaric coefficient of expansion
Conditions: Liquid, DSC

N#Cc1ccccc1 [benzonitrile]
isobaric coefficient of expansion (278.15 K, 5000 kPa): 0.000841 ± 2.1e-05 1/K
isobaric coefficient of expansion (278.15 K, 10000 kPa): 0.000831 ± 2e-05 1/K
isobaric coefficient of expansion (278.15 K, 15000 kPa): 0.000829 ± 2e-05 1/K
isobaric coefficient of expansion (278.15 K, 20000 kPa): 0.000812 ± 2e-05 1/K
isobaric coefficient of expansion (278.15 K, 25000 kPa): 0.000795 ± 1.9e-05 1/K
isobaric coefficient of expansion (278.15 K, 30000 kPa): 0.000791 ± 1.9e-05 1/K
isobaric coefficient of expansion (278.15 K, 35000 kPa): 0.00078 ± 1.9e-05 1/K
isobaric coefficient of expansion (278.15 K, 40000 kPa): 0.000772 ± 1.9e-05 1/K
isobaric coefficient of expansion (278.15 K, 45000 kPa): 0.00076 ± 1.9e-05 1/K
isobaric coefficient of expansion (278.15 K, 50000 kPa): 0.000752 ± 1.8e-05 1/K
isobaric coefficient of expansion (288.15 K, 5000 kPa): 0.000845 ± 2.1e-05 1/K
isobaric coefficient of expansion (288.15 K, 10000 kPa): 0.000832 ± 2e-05 1/K
isobaric coefficient of expansion (288.15 K, 15000 kPa): 0.000819 ± 2e-05 1/K
isobaric coefficient of expansion (288.15 K, 20000 kPa): 0.000811 ± 2e-05 1/K
isobaric coefficient of expansion (288.15 K, 25000 kPa): 0.000799 ± 2e-05 1/K
isobaric coefficient of expansion (288.15 K, 30000 kPa): 0.000789 ± 1.9e-05 1/K
isobaric coefficient of expansion (288.15 K, 35000 kPa): 0.000772 ± 1.9e-05 1/K
isobaric coefficient of expansion (288.15 K, 40000 kPa): 0.000771 ± 1.9e-05 1/K
isobaric coefficient of expansion (288.15 K, 45000 kPa): 0.000759 ± 1.9e-05 1/K
isobaric coefficient of expansion (288.15 K, 50000 kPa): 0.000754 ± 1.8e-05 1/K
isobaric coefficient of expansion (298.15 K, 5000 kPa): 0.000849 ± 2.1e-05 1/K
isobaric coefficient of expansion (298.15 K, 10000 kPa): 0.000832 ± 2e-05 1/K
isobaric coefficient of expansion (298.15 K, 15000 kPa): 0.000825 ± 2e-05 1/K
isobaric coefficient of expansion (298.15 K, 20000 kPa): 0.000809 ± 2e-05 1/K
isobaric coefficient of expansion (298.15 K, 25000 kPa): 0.000798 ± 2e-05 1/K
isobaric coefficient of expansion (298.15 K, 30000 kPa): 0.000788 ± 1.9e-05 1/K
isobaric coefficient of expansion (298.15 K, 35000 kPa): 0.000775 ± 1.9e-05 1/K
isobaric coefficient of expansion (298.15 K, 40000 kPa): 0.000773 ± 1.9e-05 1/K
isobaric coefficient of expansion (298.15 K, 45000 kPa): 0.000759 ± 1.9e-05 1/K
isobaric coefficient of expansion (298.15 K, 50000 kPa): 0.000749 ± 1.8e-05 1/K
isobaric coefficient of expansion (308.15 K, 5000 kPa): 0.000852 ± 2.1e-05 1/K
isobaric coefficient of expansion (308.15 K, 10000 kPa): 0.000842 ± 2.1e-05 1/K
isobaric coefficient of expansion (308.15 K, 15000 kPa): 0.000827 ± 2e-05 1/K
isobaric coefficient of expansion (308.15 K, 20000 kPa): 0.000814 ± 2e-05 1/K
isobaric coefficient of expansion (308.15 K, 25000 kPa): 0.000799 ± 2e-05 1/K
isobaric coefficient of expansion (308.15 K, 30000 kPa): 0.000788 ± 1.9e-05 1/K
isobaric coefficient of expansion (308.15 K, 35000 kPa): 0.000773 ± 1.9e-05 1/K
isobaric coefficient of expansion (308.15 K, 40000 kPa): 0.000765 ± 1.9e-05 1/K
isobaric coefficient of expansion (308.15 K, 45000 kPa): 0.000755 ± 1.9e-05 1/K
isobaric coefficient of expansion (308.15 K, 50000 kPa): 0.000743 ± 1.8e-05 1/K
isobaric coefficient of expansion (318.15 K, 5000 kPa): 0.000857 ± 2.1e-05 1/K
isobaric coefficient of expansion (318.15 K, 10000 kPa): 0.00084 ± 2.1e-05 1/K
isobaric coefficient of expansion (318.15 K, 15000 kPa): 0.000826 ± 2e-05 1/K
isobaric coefficient of expansion (318.15 K, 20000 kPa): 0.000811 ± 2e-05 1/K
isobaric coefficient of expansion (318.15 K, 25000 kPa): 0.000798 ± 2e-05 1/K
isobaric coefficient of expansion (318.15 K, 30000 kPa): 0.000789 ± 1.9e-05 1/K
isobaric coefficient of expansion (318.15 K, 35000 kPa): 0.000773 ± 1.9e-05 1/K
isobaric coefficient of expansion (318.15 K, 40000 kPa): 0.000764 ± 1.9e-05 1/K
isobaric coefficient of expansion (318.15 K, 45000 kPa): 0.000754 ± 1.8e-05 1/K
isobaric coefficient of expansion (318.15 K, 50000 kPa): 0.000743 ± 1.8e-05 1/K
isobaric coefficient of expansion (328.15 K, 5000 kPa): 0.000853 ± 2.1e-05 1/K
isobaric coefficient of expansion (328.15 K, 10000 kPa): 0.000837 ± 2.1e-05 1/K
isobaric coefficient of expansion (328.15 K, 15000 kPa): 0.000819 ± 2e-05 1/K
isobaric coefficient of expansion (328.15 K, 20000 kPa): 0.000808 ± 2e-05 1/K
isobaric coefficient of expansion (328.15 K, 25000 kPa): 0.000794 ± 1.9e-05 1/K
isobaric coefficient of expansion (328.15 K, 30000 kPa): 0.000782 ± 1.9e-05 1/K
isobaric coefficient of expansion (328.15 K, 35000 kPa): 0.000772 ± 1.9e-05 1/K
isobaric coefficient of expansion (328.15 K, 40000 kPa): 0.00076 ± 1.9e-05 1/K
isobaric coefficient of expansion (328.15 K, 45000 kPa): 0.000751 ± 1.8e-05 1/K
isobaric coefficient of expansion (328.15 K, 50000 kPa): 0.000736 ± 1.8e-05 1/K
isobaric coefficient of expansion (338.15 K, 5000 kPa): 0.000863 ± 2.1e-05 1/K
isobaric coefficient of expansion (338.15 K, 10000 kPa): 0.000843 ± 2.1e-05 1/K
isobaric coefficient of expansion (338.15 K, 15000 kPa): 0.000826 ± 2e-05 1/K
isobaric coefficient of expansion (338.15 K, 20000 kPa): 0.000813 ± 2e-05 1/K
isobaric coefficient of expansion (338.15 K, 25000 kPa): 0.000799 ± 2e-05 1/K
isobaric coefficient of expansion (338.15 K, 30000 kPa): 0.000786 ± 1.9e-05 1/K
isobaric coefficient of expansion (338.15 K, 35000 kPa): 0.000776 ± 1.9e-05 1/K
isobaric coefficient of expansion (338.15 K, 40000 kPa): 0.000762 ± 1.9e-05 1/K
isobaric coefficient of expansion (338.15 K, 45000 kPa): 0.000747 ± 1.8e-05 1/K
isobaric coefficient of expansion (338.15 K, 50000 kPa): 0.000738 ± 1.8e-05 1/K
isobaric coefficient of expansion (348.15 K, 5000 kPa): 0.00087 ± 2.1e-05 1/K
isobaric coefficient of expansion (348.15 K, 10000 kPa): 0.00085 ± 2.1e-05 1/K
isobaric coefficient of expansion (348.15 K, 15000 kPa): 0.000832 ± 2e-05 1/K
isobaric coefficient of expansion (348.15 K, 20000 kPa): 0.000818 ± 2e-05 1/K
isobaric coefficient of expansion (348.15 K, 25000 kPa): 0.000802 ± 2e-05 1/K
isobaric coefficient of expansion (348.15 K, 30000 kPa): 0.000788 ± 1.9e-05 1/K
isobaric coefficient of expansion (348.15 K, 35000 kPa): 0.000774 ± 1.9e-05 1/K
isobaric coefficient of expansion (348.15 K, 40000 kPa): 0.000761 ± 1.9e-05 1/K
isobaric coefficient of expansion (348.15 K, 45000 kPa): 0.000749 ± 1.8e-05 1/K
isobaric coefficient of expansion (348.15 K, 50000 kPa): 0.000737 ± 1.8e-05 1/K
